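1) Cells in 96-well plates. 2) Compound, 48 h, 5 concentrations. 3) Linear interpolation between surrounding doses. 4) Unreached endpoint = highest concentration. GI50 marks 50% less growth. TGI: total growth inhibition.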
Tests used:
Experiment in all cases: growth of human tumour cells (NCI), 48 h; in the data active = GI50 below about 0.43 µM; inactive = the rest
MDA-MB-231 breast = tested on: MDA-MB-231 breast
IGROV1 ovarian = tested on: IGROV1 ovarian
MOLT-4 leukemia = tested on: MOLT-4 leukemia
MDA-MB-435 = tested on: MDA-MB-435
KM12 colon = tested on: KM12 colon
HOP-62 NSCLC = tested on: HOP-62 NSCLC
DU-145 prostate = tested on: DU-145 prostate
SK-MEL-2 melanoma = tested on: SK-MEL-2 melanoma
TK-10 renal = tested on: TK-10 renal
SF-295 CNS = tested on: SF-295 CNS
RXF 393 renal = tested on: RXF 393 renal
BT-549 breast = tested on: BT-549 breast
OVCAR-4 ovarian = tested on: OVCAR-4 ovarian
NCI/ADR-RES ovarian = tested on: NCI/ADR-RES ovarian
UACC-257 melanoma = tested on: UACC-257 melanoma
A549 NSCLC = tested on: A549 NSCLC
PC-3 prostate = tested on: PC-3 prostate
MALME-3M melanoma = tested on: MALME-3M melanoma
NCI-H23 lung = tested on: NCI-H23 lung
NCI-H460 lung = tested on: NCI-H460 lung
OVCAR-5 ovarian = tested on: OVCAR-5 ovarian
EKVX NSCLC = tested on: EKVX NSCLC
UO-31 renal = tested on: UO-31 renal
HL-60(TB) leukemia = tested on: HL-60(TB) leukemia
SN12C renal = tested on: SN12C renal
U251 CNS = tested on: U251 CNS
SK-MEL-28 melanoma = tested on: SK-MEL-28 melanoma
MCF7 breast = tested on: MCF7 breast
HCT-15 colon = tested on: HCT-15 colon
A498 renal = tested on: A498 renal
SK-OV-3 ovarian = tested on: SK-OV-3 ovarian
SF-268 CNS = tested on: SF-268 CNS
NCI-H522 lung = tested on: NCI-H522 lung
UACC-62 melanoma = tested on: UACC-62 melanoma
HT29 colon = tested on: HT29 colon
ACHN renal = tested on: ACHN renal
RPMI-8226 leukemia = tested on: RPMI-8226 leukemia
SNB-75 CNS = tested on: SNB-75 CNS
SW-620 colon = tested on: SW-620 colon
CCRF-CEM leukemia = tested on: CCRF-CEM leukemia
NCI-H226 lung = tested on: NCI-H226 lung
HCT-116 colon = tested on: HCT-116 colon
HCC-2998 colon = tested on: HCC-2998 colon
786-0 renal = tested on: 786-0 renal
SK-MEL-5 melanoma = tested on: SK-MEL-5 melanoma
OVCAR-8 ovarian = tested on: OVCAR-8 ovarian
HS 578T breast = tested on: HS 578T breast
SF-539 CNS = tested on: SF-539 CNS
LOX IMVI melanoma = tested on: LOX IMVI melanoma
OVCAR-3 ovarian = tested on: OVCAR-3 ovarian
K-562 leukemia = tested on: K-562 leukemia
CAKI-1 renal = tested on: CAKI-1 renal
T-47D breast = tested on: T-47D breast
SNB-19 CNS = tested on: SNB-19 CNS
HOP-92 NSCLC = tested on: HOP-92 NSCLC
COLO 205 colon = tested on: COLO 205 colon

Cc1nc2c(cnn2-c2ccnc3c(C(F)(F)F)cccc23)c(=O)o1
inactive: GI50 (MDA-MB-231 breast) > 100 µM | GI50 (IGROV1 ovarian) > 100 µM | GI50 (MOLT-4 leukemia) > 100 µM | GI50 (MDA-MB-435) > 100 µM | GI50 (KM12 colon) > 100 µM | GI50 (HOP-62 NSCLC) > 100 µM | GI50 (DU-145 prostate) > 100 µM | GI50 (SK-MEL-2 melanoma) > 100 µM | GI50 (TK-10 renal) > 100 µM | GI50 (SF-295 CNS) > 100 µM | GI50 (RXF 393 renal) > 100 µM | GI50 (BT-549 breast) > 100 µM | GI50 (OVCAR-4 ovarian) > 100 µM | GI50 (NCI/ADR-RES ovarian) > 100 µM | GI50 (UACC-257 melanoma) > 100 µM | GI50 (A549 NSCLC) > 100 µM | GI50 (PC-3 prostate) > 100 µM | GI50 (MALME-3M melanoma) > 100 µM | GI50 (NCI-H23 lung) > 100 µM | GI50 (NCI-H460 lung) > 100 µM | GI50 (OVCAR-5 ovarian) > 100 µM | GI50 (EKVX NSCLC) > 100 µM | GI50 (UO-31 renal) > 100 µM | GI50 (HL-60(TB) leukemia) > 100 µM | GI50 (SN12C renal) > 100 µM | GI50 (U251 CNS) > 100 µM | GI50 (SK-MEL-28 melanoma) > 100 µM | GI50 (MCF7 breast) > 100 µM | GI50 (HCT-15 colon) > 100 µM | GI50 (A498 renal) > 100 µM | GI50 (SK-OV-3 ovarian) > 100 µM | GI50 (SF-268 CNS) > 100 µM | GI50 (NCI-H522 lung) > 100 µM | GI50 (UACC-62 melanoma) 93.9 µM | GI50 (HT29 colon) > 100 µM | GI50 (ACHN renal) > 100 µM | GI50 (RPMI-8226 leukemia) > 100 µM | GI50 (SNB-75 CNS) > 100 µM | GI50 (SW-620 colon) > 100 µM | GI50 (CCRF-CEM leukemia) > 100 µM | GI50 (NCI-H226 lung) > 100 µM | GI50 (HCT-116 colon) > 100 µM | GI50 (HCC-2998 colon) > 100 µM | GI50 (786-0 renal) > 100 µM | GI50 (SK-MEL-5 melanoma) > 100 µM | GI50 (OVCAR-8 ovarian) > 100 µM | GI50 (HS 578T breast) > 100 µM | GI50 (SF-539 CNS) > 100 µM | GI50 (LOX IMVI melanoma) > 100 µM | GI50 (OVCAR-3 ovarian) > 100 µM | GI50 (K-562 leukemia) > 100 µM | GI50 (CAKI-1 renal) > 100 µM | GI50 (T-47D breast) > 100 µM | GI50 (SNB-19 CNS) > 100 µM | GI50 (HOP-92 NSCLC) > 100 µM | GI50 (COLO 205 colon) > 100 µM
> 100 µM: TGI (MDA-MB-231 breast) | TGI (IGROV1 ovarian) | TGI (MOLT-4 leukemia) | TGI (MDA-MB-435) | TGI (KM12 colon) | TGI (HOP-62 NSCLC) | TGI (DU-145 prostate) | TGI (SK-MEL-2 melanoma) | TGI (TK-10 renal) | TGI (SF-295 CNS) | TGI (RXF 393 renal) | TGI (BT-549 breast) | TGI (OVCAR-4 ovarian) | TGI (NCI/ADR-RES ovarian) | TGI (UACC-257 melanoma) | TGI (A549 NSCLC) | TGI (PC-3 prostate) | TGI (MALME-3M melanoma) | TGI (NCI-H23 lung) | TGI (NCI-H460 lung) | TGI (OVCAR-5 ovarian) | TGI (EKVX NSCLC) | TGI (UO-31 renal) | TGI (HL-60(TB) leukemia) | TGI (SN12C renal) | TGI (U251 CNS) | TGI (SK-MEL-28 melanoma) | TGI (MCF7 breast) | TGI (HCT-15 colon) | TGI (A498 renal) | TGI (SK-OV-3 ovarian) | TGI (SF-268 CNS) | TGI (NCI-H522 lung) | TGI (UACC-62 melanoma) | TGI (HT29 colon) | TGI (ACHN renal) | TGI (RPMI-8226 leukemia) | TGI (SNB-75 CNS) | TGI (SW-620 colon) | TGI (CCRF-CEM leukemia) | TGI (NCI-H226 lung) | TGI (HCT-116 colon) | TGI (HCC-2998 colon) | TGI (786-0 renal) | TGI (SK-MEL-5 melanoma) | TGI (OVCAR-8 ovarian) | TGI (HS 578T breast) | TGI (SF-539 CNS) | TGI (LOX IMVI melanoma) | TGI (OVCAR-3 ovarian) | TGI (K-562 leukemia) | TGI (CAKI-1 renal) | TGI (T-47D breast) | TGI (SNB-19 CNS) | TGI (HOP-92 NSCLC) | TGI (COLO 205 colon)

Source: PubChem BioAssay (NCI)
